In article PMC11996864, “A small-molecule inhibitor of BCL10-MALT1 interaction abrogates progression of diffuse large B cell lymphoma” (The Journal of Clinical Investigation, 2025):

Columns and labels:
[1] = target: T1, full-length MALT1 (Homo sapiens, UniProt Q9UDY8); assay: SPR binding of M1i-124 to immobilized full-length MALT1; conditions: steady-state affinity model; read-out: equilibrium dissociation constant (KD)
T1 construct: full-length GST-tagged MALT1 (Novus, catalog H00010892-P01) protein; purchased Novus H00010892-P01
Description: Surface plasmon resonance (SPR) experiments were performed on a Biacore 2000 system (Cytiva). Full-length GST-BCL10 (Abnova, catalog H00008915-P01) was immobilized onto a gold sensor chip surface, and analyte solution containing MALT1(DD+Ig1-2), MALT1(DD), or MALT1(Ig1-2) purified protein was injected over the surface through a series of flow cells (see Supplemental Methods for details on protein purification). The binding kinetic parameters were obtained using the Langmuir model for global fitting with 1:1 binding ratio where one ligand molecule interacts with one analyte molecule. The equilibrium dissociation constant (KD) of M1i-124 to full-length GST-tagged MALT1 (Novus, catalog H00010892-P01) protein was determined by Creative Biolabs using Biacore T200. Full-length MALT1 protein was immobilized onto CM5 sensor chip surface, and M1i-124 was injected at concentrations of 0, 12.5, 25, 50, 100, and 200 μM. The steady-state affinity model was used to determine the KD.

[2] = test system: COX1/2; assay: SAFETYscan78 off-target screen; conditions: off-target panel; read-out: EC50 or IC50, COX1/2
Source text: (§1) We also tested for possible adverse actions of M1i-124 on cytochrome P450 (CYP) enzymes that might limit its use in vivo. The CYP family of enzymes are responsible for phase I metabolism of many drugs and endogenous substances, and their inhibition can lead to unanticipated toxicities. […] To further test for potential off-target effects of M1i-124, we conducted an in vitro safety pharmacology profiling screen that measures the ability of a candidate compound to inhibit 78 key GPCRs, ion channels, nuclear hormone receptors, neurotransmitter transporters, kinases, and non-kinase enzymes. […]
(§2) cological profile for M1i-124. EC50 or I C50 f or act i vi t y agai nst sel ect GPCRs, i on channel s, nucl ear hor mone r eceptor s, ki nases, and neur otr ansmi tter tr anspor ter s i n an off-target activity screen of M1i-124 (Eurofins SAFETYscan78). When unmeasurable, the EC50 or IC50 for an indicated target is listed as >10 […]
(§3) (1 picture or pasted object on this page, not shown here)

[3] = target: T2, INSR (Homo sapiens, UniProt P06213); assay: SAFETYscan78 off-target screen; conditions: off-target panel; read-out: EC50 or IC50, INSR
T2 construct: Eurofins SAFETYscan78
Source text: as §1, §2, §3

[4] = target: T3, VEGFR2 (Homo sapiens, UniProt P35968); assay: SAFETYscan78 off-target screen; conditions: off-target panel; read-out: EC50 or IC50, VEGFR2
T3 construct: Eurofins SAFETYscan78
Source text: as §1, §2, §3

[5] = target: T4, LCK (Homo sapiens, UniProt P06239); assay: SAFETYscan78 off-target screen; conditions: off-target panel; read-out: EC50 or IC50, LCK
T4 construct: Eurofins SAFETYscan78
Source text: as §1, §2, §3

[6] = target: T5, hERG (Homo sapiens, UniProt Q12809); assay: SAFETYscan78 off-target screen; conditions: off-target panel; read-out: EC50 or IC50, hERG
T5 construct: Eurofins SAFETYscan78
Source text: as §1, §2, §3

[7] = target: T6, PDE4 (Homo sapiens, UniProt Q08499); assay: SAFETYscan78 off-target screen; conditions: off-target panel; read-out: EC50 or IC50, PDE4
T6 construct: Eurofins SAFETYscan78
Source text: as §1, §2, §3

[8] = target: T7, ROCK1 (Homo sapiens, UniProt Q13464); assay: SAFETYscan78 off-target screen; conditions: off-target panel; read-out: EC50 or IC50, ROCK1
T7 construct: Eurofins SAFETYscan78
Source text: as §1, §2, §3

[9] = test system: OCI-Ly1 xenografts; assay: OCI-Ly1 xenograft in NSG mice; format: in vivo, mouse; conditions: daily i.p., result in words
Source text: TMD8 cells were engrafted into 8-week-old female NOD.CB17-Prkdc^scid/J (NOD-SCID) mice from The Jackson Laboratory by subcutaneous injection of 10 × 10^6 cells resuspended in 50% Cultrex Basement Membrane Extract (R&D Systems, catalog 3632-010-02) into the right flank. OCI-Ly3 cells were engrafted into 5-week-old female NOD.Cg-Prkdc^scid Il2rg^tm1Wjl/SzJ (NSG) mice from The Jackson Laboratory by subcutaneous injection of 2.5 × 10^6 cells resuspended in Cultrex as above. OCI-Ly1 cells were engrafted into 6.5-week-old female NSG mice from The Jackson Laboratory by subcutaneous injection of 20 × 10^6 cells resuspended in Cultrex as above. For all xenograft models, when tumors reached an average volume of 100 mm^3, mice were randomized to receive M1i-124 (50 mg/kg i.p. per day), or equivalent volume of DMSO vehicle (50 μL i.p. per day). […] Tumor size was measured 3 times a week using a caliper and calculated using the formula (smallest diameter^2 × largest diameter)/2. Mice were sacrificed 24 hours after the last injection. Mice were sacrificed when the largest tumors reached 2,500 mm^3. For TMD8 xenograft experiments, tumors and various organs, including lung, heart, liver, and kidney, were collected and fixed in 10% buffered formalin, embedded in FFPE blocks, sectioned, and stained with H&E. Sections were evaluated by a board-certified pathologist.

T7 sequence (Q13464 whole entry): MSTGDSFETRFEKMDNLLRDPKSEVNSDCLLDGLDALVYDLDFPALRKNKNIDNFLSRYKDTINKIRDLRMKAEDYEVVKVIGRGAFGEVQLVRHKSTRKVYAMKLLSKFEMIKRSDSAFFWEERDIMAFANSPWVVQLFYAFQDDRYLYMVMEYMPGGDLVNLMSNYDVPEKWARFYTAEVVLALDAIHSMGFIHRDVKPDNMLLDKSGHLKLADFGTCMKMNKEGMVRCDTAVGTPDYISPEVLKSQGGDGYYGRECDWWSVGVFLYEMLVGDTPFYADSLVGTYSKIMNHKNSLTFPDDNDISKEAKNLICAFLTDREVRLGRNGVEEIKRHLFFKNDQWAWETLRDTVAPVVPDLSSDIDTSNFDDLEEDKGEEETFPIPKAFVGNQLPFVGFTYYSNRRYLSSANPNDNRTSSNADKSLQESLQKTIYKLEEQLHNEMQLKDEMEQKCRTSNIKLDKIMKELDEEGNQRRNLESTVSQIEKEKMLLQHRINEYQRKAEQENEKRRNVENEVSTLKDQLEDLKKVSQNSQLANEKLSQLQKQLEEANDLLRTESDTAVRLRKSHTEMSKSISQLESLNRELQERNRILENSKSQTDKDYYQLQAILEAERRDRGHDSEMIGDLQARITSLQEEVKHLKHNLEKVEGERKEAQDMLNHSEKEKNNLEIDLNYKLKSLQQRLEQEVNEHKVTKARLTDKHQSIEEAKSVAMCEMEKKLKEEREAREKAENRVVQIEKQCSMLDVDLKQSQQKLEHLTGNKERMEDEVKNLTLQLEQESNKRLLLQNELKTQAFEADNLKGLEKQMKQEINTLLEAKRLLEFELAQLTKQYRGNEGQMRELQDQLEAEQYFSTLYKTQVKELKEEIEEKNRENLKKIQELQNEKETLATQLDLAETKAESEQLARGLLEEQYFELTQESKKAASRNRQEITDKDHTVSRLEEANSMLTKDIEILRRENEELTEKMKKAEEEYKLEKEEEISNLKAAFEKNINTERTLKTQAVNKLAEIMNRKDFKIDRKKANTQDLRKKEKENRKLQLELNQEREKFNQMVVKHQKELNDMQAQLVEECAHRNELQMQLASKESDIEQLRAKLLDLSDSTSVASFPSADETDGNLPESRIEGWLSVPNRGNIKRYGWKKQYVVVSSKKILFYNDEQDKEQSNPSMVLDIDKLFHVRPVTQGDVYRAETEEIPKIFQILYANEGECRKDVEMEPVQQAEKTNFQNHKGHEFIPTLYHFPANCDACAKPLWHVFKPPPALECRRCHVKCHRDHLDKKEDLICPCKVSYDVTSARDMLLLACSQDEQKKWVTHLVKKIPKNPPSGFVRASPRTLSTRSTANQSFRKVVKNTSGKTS
T1 sequence (Q9UDY8 1-813 isoform Q9UDY8-2): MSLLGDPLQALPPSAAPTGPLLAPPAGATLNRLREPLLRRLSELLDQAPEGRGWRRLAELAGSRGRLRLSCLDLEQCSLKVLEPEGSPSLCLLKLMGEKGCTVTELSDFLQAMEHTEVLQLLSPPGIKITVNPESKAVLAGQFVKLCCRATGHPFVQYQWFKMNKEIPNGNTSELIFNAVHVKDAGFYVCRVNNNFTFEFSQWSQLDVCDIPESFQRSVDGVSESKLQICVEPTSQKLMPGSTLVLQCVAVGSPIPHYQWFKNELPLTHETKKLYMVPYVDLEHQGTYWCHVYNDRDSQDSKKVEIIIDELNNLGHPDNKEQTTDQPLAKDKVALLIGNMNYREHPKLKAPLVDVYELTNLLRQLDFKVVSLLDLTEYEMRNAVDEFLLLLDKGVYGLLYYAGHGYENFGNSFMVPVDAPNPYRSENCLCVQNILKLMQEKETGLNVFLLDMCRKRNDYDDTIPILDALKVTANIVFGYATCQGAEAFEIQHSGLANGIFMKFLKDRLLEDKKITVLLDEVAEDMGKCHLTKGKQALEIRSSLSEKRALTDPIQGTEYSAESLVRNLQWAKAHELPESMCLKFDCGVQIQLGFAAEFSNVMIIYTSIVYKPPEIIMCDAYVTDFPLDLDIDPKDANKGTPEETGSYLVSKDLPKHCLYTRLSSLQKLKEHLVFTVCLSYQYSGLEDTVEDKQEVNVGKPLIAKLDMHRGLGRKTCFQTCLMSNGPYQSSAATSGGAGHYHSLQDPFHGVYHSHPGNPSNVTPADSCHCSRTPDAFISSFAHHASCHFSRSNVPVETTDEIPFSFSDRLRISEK
T3 sequence (P35968 20-1356): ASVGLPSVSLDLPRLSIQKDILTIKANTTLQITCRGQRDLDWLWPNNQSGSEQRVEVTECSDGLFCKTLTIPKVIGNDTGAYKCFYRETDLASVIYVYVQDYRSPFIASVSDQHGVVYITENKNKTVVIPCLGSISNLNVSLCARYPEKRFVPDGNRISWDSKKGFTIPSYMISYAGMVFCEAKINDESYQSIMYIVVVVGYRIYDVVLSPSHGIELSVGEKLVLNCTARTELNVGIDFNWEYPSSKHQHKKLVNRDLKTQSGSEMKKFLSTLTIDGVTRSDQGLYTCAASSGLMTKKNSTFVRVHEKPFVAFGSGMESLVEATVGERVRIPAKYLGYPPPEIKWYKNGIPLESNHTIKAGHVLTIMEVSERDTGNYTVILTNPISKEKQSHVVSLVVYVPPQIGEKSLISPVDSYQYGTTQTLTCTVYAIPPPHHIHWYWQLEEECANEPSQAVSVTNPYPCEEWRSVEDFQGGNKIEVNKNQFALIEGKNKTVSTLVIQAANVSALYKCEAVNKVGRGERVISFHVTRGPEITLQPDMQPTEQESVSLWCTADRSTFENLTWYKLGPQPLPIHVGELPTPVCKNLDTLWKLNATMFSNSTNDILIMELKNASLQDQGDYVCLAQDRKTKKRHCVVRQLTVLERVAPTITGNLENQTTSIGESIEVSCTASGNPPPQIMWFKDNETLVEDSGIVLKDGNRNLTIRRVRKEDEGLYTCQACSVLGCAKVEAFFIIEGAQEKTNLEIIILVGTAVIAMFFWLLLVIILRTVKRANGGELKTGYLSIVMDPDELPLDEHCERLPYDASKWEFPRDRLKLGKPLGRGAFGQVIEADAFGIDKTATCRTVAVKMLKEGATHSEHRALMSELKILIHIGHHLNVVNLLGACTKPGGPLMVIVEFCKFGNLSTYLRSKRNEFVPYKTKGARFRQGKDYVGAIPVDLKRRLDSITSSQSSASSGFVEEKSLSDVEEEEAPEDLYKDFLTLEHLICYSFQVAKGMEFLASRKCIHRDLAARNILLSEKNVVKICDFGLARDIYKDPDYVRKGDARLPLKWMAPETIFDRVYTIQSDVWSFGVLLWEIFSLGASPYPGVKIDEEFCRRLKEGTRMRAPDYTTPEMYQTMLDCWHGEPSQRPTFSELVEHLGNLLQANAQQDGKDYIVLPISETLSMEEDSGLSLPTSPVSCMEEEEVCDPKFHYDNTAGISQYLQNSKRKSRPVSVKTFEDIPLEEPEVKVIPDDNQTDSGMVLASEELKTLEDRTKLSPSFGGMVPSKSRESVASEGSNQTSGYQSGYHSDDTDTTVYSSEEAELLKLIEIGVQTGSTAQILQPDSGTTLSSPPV
T5 sequence (Q12809 whole entry): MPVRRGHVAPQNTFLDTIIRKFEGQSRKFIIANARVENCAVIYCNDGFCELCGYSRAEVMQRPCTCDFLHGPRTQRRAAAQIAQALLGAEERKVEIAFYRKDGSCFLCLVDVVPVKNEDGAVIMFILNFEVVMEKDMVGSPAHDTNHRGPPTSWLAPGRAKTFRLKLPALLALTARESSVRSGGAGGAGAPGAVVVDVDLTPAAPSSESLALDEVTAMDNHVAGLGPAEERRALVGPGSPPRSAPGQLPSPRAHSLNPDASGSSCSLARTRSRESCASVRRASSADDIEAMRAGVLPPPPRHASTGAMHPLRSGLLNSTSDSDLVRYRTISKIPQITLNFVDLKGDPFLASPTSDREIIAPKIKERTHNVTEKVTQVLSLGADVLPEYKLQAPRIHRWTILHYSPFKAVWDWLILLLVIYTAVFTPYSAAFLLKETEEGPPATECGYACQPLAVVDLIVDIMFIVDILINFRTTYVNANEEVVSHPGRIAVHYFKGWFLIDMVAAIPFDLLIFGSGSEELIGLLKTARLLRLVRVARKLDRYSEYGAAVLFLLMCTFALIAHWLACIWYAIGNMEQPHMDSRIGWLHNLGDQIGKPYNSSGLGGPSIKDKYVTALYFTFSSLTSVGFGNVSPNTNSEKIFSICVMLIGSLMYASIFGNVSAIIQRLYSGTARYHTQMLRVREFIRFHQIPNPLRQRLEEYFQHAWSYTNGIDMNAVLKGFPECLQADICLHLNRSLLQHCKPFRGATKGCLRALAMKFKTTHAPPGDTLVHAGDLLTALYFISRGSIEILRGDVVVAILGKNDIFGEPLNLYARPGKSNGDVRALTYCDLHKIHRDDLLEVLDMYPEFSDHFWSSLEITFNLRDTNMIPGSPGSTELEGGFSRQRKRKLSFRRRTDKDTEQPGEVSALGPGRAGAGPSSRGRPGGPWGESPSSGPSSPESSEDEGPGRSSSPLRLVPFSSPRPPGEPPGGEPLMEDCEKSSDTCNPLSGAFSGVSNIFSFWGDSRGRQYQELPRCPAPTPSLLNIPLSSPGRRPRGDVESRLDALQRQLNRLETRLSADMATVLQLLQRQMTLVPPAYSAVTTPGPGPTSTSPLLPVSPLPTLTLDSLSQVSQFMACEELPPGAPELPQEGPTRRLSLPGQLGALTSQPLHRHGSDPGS

SMILES: O=S(=O)(NCc1ccc2c(c1)OCO2)c1ccc(Cc2ccc(S(=O)(=O)NCc3ccc4c(c3)OCO4)cc2)cc1 [M1i-124]
- Kd [1]: 296 µM
- IC50 [2]: > 10 µM
- IC50 [3]: > 10 µM
- IC50 [4]: > 10 µM
- IC50 [5]: > 10 µM
- IC50 [6]: > 10 µM
- IC50 [7]: > 10 µM
- IC50 [8]: > 10 µM
- OCI-Ly1 xenograft growth [9]: no effect
